We go through two compounds from ChEMBL document CHEMBL1795272, “Rhamnetin production based on the rational design of the poplar O-methyltransferase enzyme and its biological activities” (Bioorg Med Chem Lett, 2011).

The source made the active and inactive calls. The calls are words filed in the database; no cut-off is given here.

For data set [1], the system named is MDA-MB-231. Description: Increase in Egr-1 protein expression in human MDA-MB-231 cells at 20 uM within 30 mins by Western blot analysis. It is filed as functional, cell-based. On the technique in general: A western blot detects proteins with antibodies after separation by electrophoresis.
Data set [2] deals with Mitogen-activated protein kinase 3 (Homo sapiens) (UniProt P27361). Kind of data set: Increase in ERK1 phosphorylation in human MDA-MB-231 cells at 20 uM by Western blot analysis. The data set is classed as cell-based. Particulars: TDE = time-dependent effect.
Sequence of Mitogen-activated protein kinase 3 (Homo sapiens) (P27361 whole entry): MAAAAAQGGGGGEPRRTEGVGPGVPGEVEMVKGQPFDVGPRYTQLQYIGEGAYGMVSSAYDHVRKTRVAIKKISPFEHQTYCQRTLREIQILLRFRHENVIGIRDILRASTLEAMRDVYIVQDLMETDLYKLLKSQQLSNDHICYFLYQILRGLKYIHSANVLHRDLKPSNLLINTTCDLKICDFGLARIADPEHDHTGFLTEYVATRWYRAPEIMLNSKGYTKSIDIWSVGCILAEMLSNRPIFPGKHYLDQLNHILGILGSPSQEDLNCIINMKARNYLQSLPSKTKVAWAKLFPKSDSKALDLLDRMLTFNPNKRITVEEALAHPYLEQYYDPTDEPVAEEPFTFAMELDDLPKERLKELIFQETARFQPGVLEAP
For data set [3], the system named is MDA-MB-231. Description: Effect on p38 kinase protein level in human MDA-MB-231 cells at 20 uM up to 120 mins by Western blot analysis. The data set is classed as functional, cell-based.
Data set [4] deals with MDA-MB-231. Description: Increase in c-Fos protein expression in human MDA-MB-231 cells at 20 uM within 30 mins by Western blot analysis. The data set is classed as functional, cell-based.
Data set [5] concerns MDA-MB-231. Kind of data set: Induction of apoptosis in human MDA-MB-231 cells assessed as cleaved caspase-7 accumulation at 20 uM after 12 hrs by Western blot analysis. It is filed as functional, cell-based.
In data set [6] the target is MAP kinase p38 (Homo sapiens) (UniProt O15264+Q15759+Q16539+P53778). Kind of data set: Increase in p38 kinase phosphorylation in human MDA-MB-231 cells at 20 uM by Western blot analysis. The data set is classed as cell-based. Particulars: TDE = time-dependent effect.
In data set [7] the test system is MDA-MB-231. Kind of data set: Effect on ERK1 protein level in human MDA-MB-231 cells at 20 uM up to 120 mins by Western blot analysis. It is filed as functional, cell-based.
Data set [8] is described as follows: Stability of the compound in DMEM media assessed as compound degradation at 25 ppm after 3 hrs by HPLC. It is filed as physicochemical. Particulars: read-out: Activity.
Data set [9] addresses Mitogen-activated protein kinase 9 (Homo sapiens) (UniProt P45984). Kind of data set: Increase in JNK2 phosphorylation in human MDA-MB-231 cells at 20 uM by Western blot analysis. It is filed as cell-based. Particulars: TDE = time-dependent effect.
Data set [10] concerns MDA-MB-231. Description: Effect on JNK2 protein level in human MDA-MB-231 cells at 20 uM up to 120 mins by Western blot analysis. It is filed as functional, cell-based.
The target of data set [11] is Mitogen-activated protein kinase 1 (Homo sapiens) (UniProt P28482). Description: Increase in ERK2 phosphorylation in human MDA-MB-231 cells at 20 uM by Western blot analysis. It is filed as cell-based. Conditions: TDE = time-dependent effect.
Sequence of Mitogen-activated protein kinase 1 (Homo sapiens) (P28482 whole entry): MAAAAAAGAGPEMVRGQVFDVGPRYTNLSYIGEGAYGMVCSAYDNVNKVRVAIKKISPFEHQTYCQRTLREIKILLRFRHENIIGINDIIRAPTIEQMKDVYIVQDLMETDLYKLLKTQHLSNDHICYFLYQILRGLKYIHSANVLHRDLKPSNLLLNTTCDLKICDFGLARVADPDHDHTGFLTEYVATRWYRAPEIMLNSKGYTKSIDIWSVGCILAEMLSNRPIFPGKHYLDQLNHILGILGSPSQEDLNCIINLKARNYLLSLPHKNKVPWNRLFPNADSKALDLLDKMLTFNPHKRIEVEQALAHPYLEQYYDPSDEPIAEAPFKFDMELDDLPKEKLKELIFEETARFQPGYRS
Data set [12] concerns MDA-MB-231. Description: Effect on ERK2 protein level in human MDA-MB-231 cells at 20 uM up to 120 mins by Western blot analysis. It is filed as functional, cell-based.
Data set [13] concerns MDA-MB-231. Kind of data set: Effect on JNK1 protein level in human MDA-MB-231 cells at 20 uM up to 120 mins by Western blot analysis. The data set is classed as functional, cell-based.
In data set [14] the target is Mitogen-activated protein kinase 8 (Homo sapiens) (UniProt P45983). Description: Increase in JNK1 phosphorylation in human MDA-MB-231 cells at 20 uM by Western blot analysis. It is filed as cell-based. Particulars: TDE = time-dependent effect.
Sequence of Mitogen-activated protein kinase 8 (Homo sapiens) (P45983 whole entry): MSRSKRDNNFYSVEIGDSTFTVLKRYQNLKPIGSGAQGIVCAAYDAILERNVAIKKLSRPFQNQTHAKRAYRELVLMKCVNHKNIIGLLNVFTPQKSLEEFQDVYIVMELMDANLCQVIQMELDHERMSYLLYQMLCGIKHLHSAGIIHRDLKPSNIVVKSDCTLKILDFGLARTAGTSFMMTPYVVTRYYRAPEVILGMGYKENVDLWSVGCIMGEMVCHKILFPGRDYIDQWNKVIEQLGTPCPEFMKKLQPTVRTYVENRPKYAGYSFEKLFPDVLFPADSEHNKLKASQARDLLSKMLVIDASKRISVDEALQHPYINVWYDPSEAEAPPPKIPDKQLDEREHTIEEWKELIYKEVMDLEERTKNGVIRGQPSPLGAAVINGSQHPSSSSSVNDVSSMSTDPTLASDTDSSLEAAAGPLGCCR

Sequence of Mitogen-activated protein kinase 9 (Homo sapiens) (P45984 whole entry, looked up): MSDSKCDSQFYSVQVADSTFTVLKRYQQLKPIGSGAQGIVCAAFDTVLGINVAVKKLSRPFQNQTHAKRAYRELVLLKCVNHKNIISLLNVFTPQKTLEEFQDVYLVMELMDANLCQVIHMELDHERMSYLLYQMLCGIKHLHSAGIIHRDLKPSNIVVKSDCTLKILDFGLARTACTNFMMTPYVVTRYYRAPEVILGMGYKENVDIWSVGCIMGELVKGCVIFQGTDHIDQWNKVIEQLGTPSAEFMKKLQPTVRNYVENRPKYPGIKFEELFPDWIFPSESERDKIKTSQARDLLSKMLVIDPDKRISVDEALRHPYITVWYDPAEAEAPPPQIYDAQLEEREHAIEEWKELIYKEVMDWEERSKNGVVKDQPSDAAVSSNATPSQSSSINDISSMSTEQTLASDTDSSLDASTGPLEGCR

`O=c1c(O)c(-c2ccc(O)c(O)c2)oc2cc(O)cc(O)c12` [QUERCETIN]: the outcome in the data set with MDA-MB-231 [1], with MDA-MB-231 [4] and in the data set with MDA-MB-231 [5] was Active. The Activity entry in [2], in data set [6], in data set [9], in [11] and in [14] was “tde” each time. Further, the result with MDA-MB-231 [3], in the data set on MDA-MB-231 [7], in the data set on MDA-MB-231 [10], in the data set on MDA-MB-231 [12] and with MDA-MB-231 [13] was inactive. Moreover, the degraded at 3 h, 25 ppm in data set [8] was 60%.
In the case of `COc1cc(O)c2c(=O)c(O)c(-c3ccc(O)c(O)c3)oc2c1` [RHAMNETIN], the result in the data set on MDA-MB-231 [1], in the data set with MDA-MB-231 [4] and in the data set on MDA-MB-231 [5] was Active. In addition, the Activity result in data set [2], in data set [6], in data set [9], in [11] and in [14] was “tde” throughout. Further, the outcome in the data set with MDA-MB-231 [3], in the data set on MDA-MB-231 [7], in the data set with MDA-MB-231 [10], in the data set on MDA-MB-231 [12] and in the data set on MDA-MB-231 [13] was inactive. For the same compound, the degraded at 3 h, 25 ppm in data set [8] worked out at 4%.
